The term IC50 denotes the midpoint of a concentration-inhibition curve.

In the assay the target is T1, Polyunsaturated fatty acid 5-lipoxygenase (Rattus norvegicus, UniProt P12527).
T1 sequence (P12527 whole entry): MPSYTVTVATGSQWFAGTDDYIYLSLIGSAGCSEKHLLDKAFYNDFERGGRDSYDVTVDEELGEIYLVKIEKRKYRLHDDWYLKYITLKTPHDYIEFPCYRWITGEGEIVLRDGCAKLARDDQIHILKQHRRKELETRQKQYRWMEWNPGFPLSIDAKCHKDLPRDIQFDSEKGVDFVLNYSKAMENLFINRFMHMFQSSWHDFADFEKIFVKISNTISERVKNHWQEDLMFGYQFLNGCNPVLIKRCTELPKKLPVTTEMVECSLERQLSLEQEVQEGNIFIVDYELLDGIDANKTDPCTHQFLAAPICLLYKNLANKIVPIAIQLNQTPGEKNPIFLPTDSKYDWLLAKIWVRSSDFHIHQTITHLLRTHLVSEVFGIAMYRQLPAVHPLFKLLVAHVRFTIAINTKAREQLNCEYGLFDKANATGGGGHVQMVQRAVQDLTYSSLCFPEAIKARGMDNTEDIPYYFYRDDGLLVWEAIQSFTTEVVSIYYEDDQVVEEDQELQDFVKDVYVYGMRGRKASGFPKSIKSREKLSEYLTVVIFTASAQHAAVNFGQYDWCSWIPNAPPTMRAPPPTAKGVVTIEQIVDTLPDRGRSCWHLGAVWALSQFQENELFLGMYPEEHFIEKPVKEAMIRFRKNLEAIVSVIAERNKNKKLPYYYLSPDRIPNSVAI
Nature of the assay: biochemical. It counts as cell-based, RBL-1.
Description: Inhibitory activity against 5-lipoxygenase enzyme from RBL-1 cells
`CN(C)c1ccc(-c2nc(-c3ccc(F)cc3)c(-c3ccncc3)[nH]2)cc1` yielded a 50% inhibitory concentration (IC50) of 5.6 µM.

`Oc1ccccc1-c1nc(-c2ccc(F)cc2)c(-c2ccncc2)[nH]1` displayed an IC50 of 4.1 µM.

In turn, `CN(Cc1ccccc1)Cc1ccc(-c2nc(-c3ccncc3)c(-c3ccc(F)cc3)[nH]2)cc1` returned an IC50 of 0.8 µM.

Take `CC1(C)NC(c2ccc(-c3nc(-c4ccc(F)cc4)c(-c4ccncc4)[nH]3)cc2)=NO1`: the half-inhibitory concentration (IC50) turned out to be 7.2 µM.

The molecule `N#CN=C(N)Cc1ccc(-c2nc(-c3ccncc3)c(-c3ccc(F)cc3)[nH]2)cc1` displayed an IC50 of 3.8 µM.

Consider `C[S+]([O-])c1ccc(-c2nc(-c3ccc(F)cc3)c(-c3ccnc4ccccc34)[nH]2)cc1` (stereo unspecified), for which half-maximal inhibition (IC50) required 7.2 µM.

The record behind these values is ChEMBL document CHEMBL1150984, “2,4,5- triarylimidazole inhibitors of IL-1 biosynthesis” (Bioorg Med Chem Lett, 1995).
